From ChEMBL document CHEMBL3885881, “DrugMatrix”

Organism: Rattus norvegicus
Test: DrugMatrix - Regimen: Daily Repeat
Format: toxicity, organism-based, Sprague-Dawley
Set-up: regimen Daily Repeat, gender Male, age 6-8 weeks
Conditions: in vivo, po, 0 mg/kg, route oral GAVAGE, dose level Control, […]; for ABSOLUTE BASOPHIL / ABSOLUTE EOSINOPHIL / ABSOLUTE LYMPHOCYTE / ABSOLUTE MONOCYTE / ABSOLUTE SEGMENTED NEUTROPHIL / BASOPHIL / EOSINOPHIL / ERYTHROCYTE COUNT / HEMATOCRIT / HEMOGLOBIN / LEUKOCYTE COUNT / LYMPHOCYTE / MEAN CORPUSCULAR HEMOGLOBIN / MEAN CORPUSCULAR HEMOGLOBIN CONCENTRATION / MEAN CORPUSCULAR VOLUME / MONOCYTE / NEUTROPHIL / NUCLEATED RED BLOOD CELLS / PLATELET COUNT: tissue Blood; for ALANINE AMINOTRANSFERASE / ALBUMIN / ALKALINE PHOSPHATASE / ASPARTATE AMINOTRANSFERASE / BLOOD UREA NITROGEN / CARBON DIOXIDE / CHLORIDE / CHOLESTEROL / CREATINE PHOSPHOKINASE / CREATININE / GLUCOSE / LACTATE DEHYDROGENASE / LIPASE / PHOSPHORUS / POTASSIUM / SODIUM / TOTAL BILIRUBIN / TOTAL PROTEIN / URIC ACID: tissue Plasma

CC(C)(Oc1ccc(CCNC(=O)c2ccc(Cl)cc2)cc1)C(=O)O [BEZAFIBRATE]
ABSOLUTE BASOPHIL (72 h, time 3 day): 0 CELLS/uL | ABSOLUTE EOSINOPHIL (72 h, time 3 day): 37.33 CELLS/uL | ABSOLUTE LYMPHOCYTE (72 h, time 3 day): 6295.33 CELLS/uL | ABSOLUTE MONOCYTE (72 h, time 3 day): 122.17 CELLS/uL | ABSOLUTE SEGMENTED NEUTROPHIL (72 h, time 3 day): 861.83 CELLS/uL | BASOPHIL (72 h, time 3 day): 0% | EOSINOPHIL (72 h, time 3 day): 0.5% | ERYTHROCYTE COUNT (72 h, time 3 day): 5.2 x10E6/uL | HEMATOCRIT (72 h, time 3 day): 32.58% | HEMOGLOBIN (72 h, time 3 day): 12.95 G/DL | LEUKOCYTE COUNT (72 h, time 3 day): 7.32 x10E3/uL | LYMPHOCYTE (72 h, time 3 day): 86% | MEAN CORPUSCULAR HEMOGLOBIN (72 h, time 3 day): 24.93 pg | MEAN CORPUSCULAR HEMOGLOBIN CONCENTRATION (72 h, time 3 day): 39.77 G/DL | MEAN CORPUSCULAR VOLUME (72 h, time 3 day): 62.65 fL | MONOCYTE (72 h, time 3 day): 1.67% | NEUTROPHIL (72 h, time 3 day): 11.83% | NUCLEATED RED BLOOD CELLS (72 h, time 3 day): 0 /100WBC | PLATELET COUNT (72 h, time 3 day): 1029 x10E3/uL | ALANINE AMINOTRANSFERASE (72 h, time 3 day): 63.67 u/L | ALBUMIN (72 h, time 3 day): 4.12 G/DL | ALKALINE PHOSPHATASE (72 h, time 3 day): 329.83 u/L | ASPARTATE AMINOTRANSFERASE (72 h, time 3 day): 77.67 u/L | BLOOD UREA NITROGEN (72 h, time 3 day): 18 mg/dL | CARBON DIOXIDE (72 h, time 3 day): 29.67 mmol/L | CHLORIDE (72 h, time 3 day): 102.67 MEQ/L | CHOLESTEROL (72 h, time 3 day): 64.5 mg/dL | CREATINE PHOSPHOKINASE (72 h, time 3 day): 178.67 u/L | CREATININE (72 h, time 3 day): 0.18 mg/dL | GLUCOSE (72 h, time 3 day): 163.83 mg/dL | LACTATE DEHYDROGENASE (72 h, time 3 day): 75.83 u/L | LIPASE (72 h, time 3 day): 10 u/L | PHOSPHORUS (72 h, time 3 day): 8.28 mg/dL | POTASSIUM (72 h, time 3 day): 4.79 MEQ/L | SODIUM (72 h, time 3 day): 142.22 MEQ/L | TOTAL BILIRUBIN (72 h, time 3 day): 0.22 mg/dL | TOTAL PROTEIN (72 h, time 3 day): 5.78 G/DL | URIC ACID (72 h, time 3 day): 0.87 mg/dL | BASOPHIL (120 h, time 5 day): 0.32% | EOSINOPHIL (120 h, time 5 day): 0.58% | ERYTHROCYTE COUNT (120 h, time 5 day): 7.26 x10E6/uL | HEMATOCRIT (120 h, time 5 day): 46.94% | HEMOGLOBIN (120 h, time 5 day): 14.9 G/DL | LEUKOCYTE COUNT (120 h, time 5 day): 8.69 x10E3/uL | LYMPHOCYTE (120 h, time 5 day): 81.52% | MEAN CORPUSCULAR HEMOGLOBIN (120 h, time 5 day): 20.58 pg | MEAN CORPUSCULAR HEMOGLOBIN CONCENTRATION (120 h, time 5 day): 31.8 G/DL | MEAN CORPUSCULAR VOLUME (120 h, time 5 day): 64.68 fL | MONOCYTE (120 h, time 5 day): 2.16% | NEUTROPHIL (120 h, time 5 day): 13.88% | PLATELET COUNT (120 h, time 5 day): 1531.2 x10E3/uL | ALANINE AMINOTRANSFERASE (120 h, time 5 day): 33.2 u/L | ALBUMIN (120 h, time 5 day): 3.74 G/DL | ALKALINE PHOSPHATASE (120 h, time 5 day): 318 u/L | ASPARTATE AMINOTRANSFERASE (120 h, time 5 day): 78.6 u/L | BLOOD UREA NITROGEN (120 h, time 5 day): 6 mg/dL | CHLORIDE (120 h, time 5 day): 108.4 MEQ/L | CHOLESTEROL (120 h, time 5 day): 63 mg/dL | CREATINE PHOSPHOKINASE (120 h, time 5 day): 251 u/L | CREATININE (120 h, time 5 day): 0.18 mg/dL | GLUCOSE (120 h, time 5 day): 125.6 mg/dL | PHOSPHORUS (120 h, time 5 day): 12.06 mg/dL | POTASSIUM (120 h, time 5 day): 5.92 MEQ/L | SODIUM (120 h, time 5 day): 146.8 MEQ/L | TOTAL BILIRUBIN (120 h, time 5 day): 0.16 mg/dL | TOTAL PROTEIN (120 h, time 5 day): 6.06 G/DL | ABSOLUTE BASOPHIL (time 7 day): 0 CELLS/uL | ABSOLUTE EOSINOPHIL (time 7 day): 19 CELLS/uL | ABSOLUTE LYMPHOCYTE (time 7 day): 7803.5 CELLS/uL | ABSOLUTE MONOCYTE (time 7 day): 117.83 CELLS/uL | ABSOLUTE SEGMENTED NEUTROPHIL (time 7 day): 1093 CELLS/uL | BASOPHIL (time 7 day): 0% | EOSINOPHIL (time 7 day): 0.17% | ERYTHROCYTE COUNT (time 7 day): 5.84 x10E6/uL | HEMATOCRIT (time 7 day): 35.75% | HEMOGLOBIN (time 7 day): 13.87 G/DL | LEUKOCYTE COUNT (time 7 day): 9.03 x10E3/uL | LYMPHOCYTE (time 7 day): 87.17% | MEAN CORPUSCULAR HEMOGLOBIN (time 7 day): 23.78 pg | MEAN CORPUSCULAR HEMOGLOBIN CONCENTRATION (time 7 day): 38.8 G/DL | MEAN CORPUSCULAR VOLUME (time 7 day): 61.25 fL | MONOCYTE (time 7 day): 1.17% | NEUTROPHIL (time 7 day): 11.5% | NUCLEATED RED BLOOD CELLS (time 7 day): 0 /100WBC | PLATELET COUNT (time 7 day): 1098.67 x10E3/uL | BASOPHIL (time 28 day): 0.42% | EOSINOPHIL (time 28 day): 0.58% | ERYTHROCYTE COUNT (time 28 day): 8.06 x10E6/uL | HEMATOCRIT (time 28 day): 48.44% | HEMOGLOBIN (time 28 day): 16.34 G/DL | LEUKOCYTE COUNT (time 28 day): 13.04 x10E3/uL | LYMPHOCYTE (time 28 day): 85.12% | MEAN CORPUSCULAR HEMOGLOBIN (time 28 day): 20.26 pg | MEAN CORPUSCULAR HEMOGLOBIN CONCENTRATION (time 28 day): 33.74 G/DL | MEAN CORPUSCULAR VOLUME (time 28 day): 60.1 fL | MONOCYTE (time 28 day): 1.44% | NEUTROPHIL (time 28 day): 11.28% | PLATELET COUNT (time 28 day): 1226 x10E3/uL | ALANINE AMINOTRANSFERASE (time 7 day): 66 u/L | ALBUMIN (time 7 day): 4.3 G/DL | ALKALINE PHOSPHATASE (time 7 day): 291.83 u/L | ASPARTATE AMINOTRANSFERASE (time 7 day): 80.5 u/L | BLOOD UREA NITROGEN (time 7 day): 15.67 mg/dL | CARBON DIOXIDE (time 7 day): 30 mmol/L | CHLORIDE (time 7 day): 101.67 MEQ/L | CHOLESTEROL (time 7 day): 69.67 mg/dL | CREATINE PHOSPHOKINASE (time 7 day): 363.33 u/L | CREATININE (time 7 day): 0.25 mg/dL | GLUCOSE (time 7 day): 146.5 mg/dL | LACTATE DEHYDROGENASE (time 7 day): 219.67 u/L | LIPASE (time 7 day): 11.33 u/L | PHOSPHORUS (time 7 day): 10.08 mg/dL | POTASSIUM (time 7 day): 5.22 MEQ/L | SODIUM (time 7 day): 144.67 MEQ/L | TOTAL BILIRUBIN (time 7 day): 0.12 mg/dL | TOTAL PROTEIN (time 7 day): 6.33 G/DL | URIC ACID (time 7 day): 0.75 mg/dL | ALANINE AMINOTRANSFERASE (time 28 day): 28.6 u/L | ALBUMIN (time 28 day): 3.94 G/DL | ALKALINE PHOSPHATASE (time 28 day): 254.6 u/L | ASPARTATE AMINOTRANSFERASE (time 28 day): 67.8 u/L | BLOOD UREA NITROGEN (time 28 day): 10.4 mg/dL | CHLORIDE (time 28 day): 104.6 MEQ/L | CHOLESTEROL (time 28 day): 57.6 mg/dL | CREATINE PHOSPHOKINASE (time 28 day): 224.8 u/L | CREATININE (time 28 day): 0.4 mg/dL | GLUCOSE (time 28 day): 140.6 mg/dL | PHOSPHORUS (time 28 day): 10.66 mg/dL | POTASSIUM (time 28 day): 6.58 MEQ/L | SODIUM (time 28 day): 148.6 MEQ/L | TOTAL BILIRUBIN (time 28 day): 0.24 mg/dL | TOTAL PROTEIN (time 28 day): 6.64 G/DL
